Results on 34 molecules are retold here after ChEMBL document CHEMBL3865852, “PAR2 Modulators Derived from GB88” (ACS Med Chem Lett, 2016).

pEC50, pIC50: −log10 of the molar value. Active and inactive are the calls of the source. No cut-off for these calls is given here. Where a SMILES comes first, the peptide text is derived from it. Bounds are passed on as bounds.

Data set [1] concerns the target Proteinase-activated receptor 2 (Homo sapiens) (UniProt P55085). Description: Agonist activity at PAR2 in human HT-29 cells assessed as increase in intracellular calcium release at 10 uM incubated for 30 mins measured for 60 secs by Fluo-3 AM dye based FLIPR assay relative to 2f-LIGRLO-NH2. It counts as functional, cell-based.
For data set [2] the target is unchanged. Description: Antagonist activity at PAR2 in human HT-29 cells assessed as inhibition of 2f-LIGRLO-NH2-stimulated intracellular calcium release at 10 uM preincubated for 30 mins followed by 2f-LIGRLO-NH2 stimulation measured for 60 secs by Fluo-3 AM dye based FLIPR assay relative to control. It counts as functional, cell-based. In general terms: Calcium assays in cells follow changes in intracellular calcium, usually with a dye or a luminescent sensor.

Data set [3] is described as follows: Stability in Wistar rat plasma at 10 uM measured up to 3 hrs by LC/MS/MS analysis. It counts as ADME, cell-free. As to conditions: read-out: Stability.
Data set [4] in a line: Elimination half life in Wistar rat liver homogenate at 10 uM by LC/MS/MS analysis. It counts as ADME, tissue-based. As to conditions: read-out: beta t1/2.
The subject of a further data set is Rattus norvegicus. Description: Antiinflammatory activity in Wistar rat acute paw edema model assessed as inhibition of 2f-LIGRLO-NH2-induced […] swelling at 10 mg/kg administered via oral gavage for 2 hrs followed by 2f-LIGRLO-NH2 addition measured up to 3 hrs. It counts as functional, organism-based.
Data set [5] can be described thus: Solubility of compound. It counts as physicochemical.
In data set [6] the target is T1, Proteinase-activated receptor 2 (Homo sapiens, UniProt P55085).
T1 sequence (P55085 whole entry): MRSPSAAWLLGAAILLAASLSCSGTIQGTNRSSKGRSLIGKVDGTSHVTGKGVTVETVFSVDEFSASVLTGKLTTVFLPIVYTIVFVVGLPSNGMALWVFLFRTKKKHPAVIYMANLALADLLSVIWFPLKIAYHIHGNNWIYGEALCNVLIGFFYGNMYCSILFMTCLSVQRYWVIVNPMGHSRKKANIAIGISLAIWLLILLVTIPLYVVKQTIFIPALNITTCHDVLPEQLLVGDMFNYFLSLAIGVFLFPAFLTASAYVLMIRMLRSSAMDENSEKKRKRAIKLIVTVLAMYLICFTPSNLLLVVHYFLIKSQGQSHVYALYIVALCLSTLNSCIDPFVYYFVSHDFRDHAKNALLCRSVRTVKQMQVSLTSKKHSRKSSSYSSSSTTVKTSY
Description: Agonist activity at PAR2 in human HT-29 cells assessed as increase in intracellular calcium release incubated for 30 mins measured for 60 secs by Fluo-3 AM dye based FLIPR assay relative to 2f-LIGRLO-NH2. It counts as functional, cell-based.

The target of data set [7] is T1, Proteinase-activated receptor 2. As to the kind of experiment: Antagonist activity at PAR2 in human HT-29 cells assessed as inhibition of 2f-LIGRLO-NH2-stimulated intracellular calcium release preincubated for 30 mins followed by 2f-LIGRLO-NH2 stimulation measured for 60 sec by Fluo-3 AM dye based FLIPR assay. It counts as functional, cell-based. As to conditions: for pIC50: read-out: IC50; for IC50: read-out: pIC50 (converted).

Data set [8] can be described thus: Half life in Wistar rat plasma at 10 uM by LC/MS/MS analysis. It counts as ADME, cell-free.
Data set [9] in a line: AUC (0 to 6 hrs) in Wistar rat at 10 mg/kg, po administered via gavage. Particulars: in vivo. More on the design: time < 6 hr, dose 10 mg/kg, route oral. It counts as ADME, organism-based.
Data set [10] is described as follows: Time at which maximum plasma concentration stays above 2 times in vitro PAR2 IC50 in Wistar rat at 10 mg/kg, po administered via gavage. It counts as ADME, organism-based. As to conditions: in vivo.
The target of data set [11] is T1, Proteinase-activated receptor 2. Description: Antagonist activity at PAR2 in human HT-29 cells assessed as inhibition of endogenous trypsin-stimulated intracellular calcium release by Fluo-3 AM dye based FLIPR assay. It counts as functional, cell-based.

Take `CC[C@H](C)[C@H](NC(=O)[C@H](CC1CCCCC1)NC(=O)c1ccno1)C(=O)N1CCN(c2ccccc2)CC1`: the Activity in [1] lay in the range of 30 to 50%.
For `O=C(N[C@@H](CC1CCCCC1)C(=O)N[C@@H](CC1CCCCC1)C(=O)N1CCC2(C=Cc3ccccc32)CC1)c1ccno1`, in [2], the inhibition (usually the percentage by which the read-out fell short of the control) was in the range of 10 to 16%.
`CC[C@H](C)[C@H](NC(=O)[C@H](CC1CCCCC1)NC(=O)c1ccno1)C(=O)N1CCC(c2cc(OC)ccc2OC)CC1`: the inhibition in data set [2] was in the range of 43 to 69%.
Turning to `CC[C@H](C)[C@H](NC(=O)[C@H](CC1CCCCC1)NC(=O)c1ccno1)C(=O)N1CCC(c2ccccc2C(F)(F)F)CC1`, in [2], the inhibition lay in the range of 43 to 69%.
As for `CC[C@H](C)[C@H](NC(=O)[C@H](CC1CCCCC1)NC(=O)c1cc(N)no1)C(=O)N1CCC2(C=Cc3ccccc32)CC1`, the remaining at 3 h, 10 µM in [3] was more than 75%. For the same molecule, the half-life at 10 µM in data set [4] stood at 15 min. Besides, the inhibition in data set [2] was determined as 91%. Also, the inhibition result in the data set with Rattus norvegicus is “Active”. In data set [5], the solubility entry is reported as “Soluble”.
Regarding `CC[C@H](C)[C@H](NC(=O)[C@H](CC1CCCCC1)NC(=O)c1ccno1)C(=O)N1CCC2(CC1)CC(=O)c1ccccc1O2`, the Activity in data set [1] fell in the range of 62 to 70%. Also, the pEC50 (usually the negative decadic logarithm of the EC50, by convention in mol/L) in data set [6] is 5.74 to 6.15.
As to `CC[C@H](C)[C@H](NC(=O)[C@H](CC1CCCCC1)NC(=O)c1cc(CN)no1)C(=O)N1CCC2(C=Cc3ccccc32)CC1`, the inhibition in data set [2] amounted to 62%. In data set [7], the pIC50 (commonly the IC50 on a negative log10 scale, so that one unit is a factor of ten) was 5.05 and the IC50 is 10000 nM. In data set [5], the solubility result is recorded as “Soluble”.
Take `CC[C@H](C)[C@H](NC(=O)[C@H](CC1CCCCC1)NC(=O)c1ccno1)C(=O)N1CCc2cc(OC)c(OC)cc2C1`: in [1], the Activity stood at 65%.
Regarding `CC[C@H](C)[C@H](NC(=O)[C@H](CC1CCCCC1)NC(=O)c1ccno1)C(=O)N1CCC2(CC1)c1ccccc1C1OC12` (some centres undefined), the Activity in data set [1] was found to be 65%. Moreover, the pEC50 in data set [6] is 5.74 to 6.15.
As for `CC[C@H](C)[C@H](NC(=O)[C@H](CC1CCCCC1)NC(=O)c1ccno1)C(=O)N1CCC(NC(C)=O)(c2ccccc2)CC1`, in [1], the Activity amounted to 81%.
On to `CC[C@H](C)[C@H](NC(=O)[C@H](CC1CCCCC1)NC(=O)c1c[nH]cn1)C(=O)N1CCC2(C=Cc3ccccc32)CC1`, for which the inhibition in data set [2] came out at 53%. Also, the pIC50 in data set [7] was 5.51. In [5], the solubility entry was “Soluble”.
As to `C[C@@H](O)[C@H](NC(=O)[C@H](CC1CCCCC1)NC(=O)c1ccno1)C(=O)N1CCC2(C=Cc3ccccc32)CC1`, the Activity in data set [1] lay in the range of 53 to 81%.
For `CC[C@H](C)[C@H](NC(=O)[C@H](CC1CCCCC1)NC(=O)c1ccno1)C(=O)N1CCC(c2ccc(OC)cc2)CC1`, the inhibition in data set [2] lay within 43 to 69%.
As to `CO[C@H](C)[C@H](NC(=O)[C@H](CC1CCCCC1)NC(=O)c1ccno1)C(=O)N1CCC2(C=Cc3ccccc32)CC1`, the Activity in data set [1] was in the range of 53 to 81%.
`CC[C@H](C)[C@H](NC(=O)[C@H](CC(C)C)NC(=O)[C@@H](N)CO)C(=O)NCC(=O)N[C@@H](CCCNC(=N)N)C(=O)N[C@@H](CC(C)C)C(N)=O` (H-SLIGRL-NH2): the half-life at 10 µM in data set [4] was 15 min; in [8] it was 20 min.
With `CC[C@H](C)[C@H](NC(=O)[C@H](CC1CCCCC1)NC(=O)c1ccno1)C(=O)N1CCC(c2ccc(Cl)cc2)CC1`, in [2], the inhibition is 43 to 69%.
As for `CC[C@H](C)[C@H](NC(=O)[C@H](CC1CCCCC1)NC(=O)c1ccno1)C(=O)N1CCC2(CCc3ccccc3O2)CC1`, the inhibition in data set [2] stood at 77%. Moreover, the negative logarithm of the IC50 (pIC50) in data set [7] was 5.72.
Take `CC[C@H](C)[C@H](NC(=O)[C@H](CC1CCCCC1)NC(=O)c1ccno1)C(=O)N1CC[C@H]2CCCC[C@H]2[C@H]1C(=O)NC(C)(C)C`: the inhibition in data set [2] turned out to be 38%.
Turning to `CC[C@H](C)[C@H](NC(=O)[C@H](CC1CCCCC1)NC(=O)c1ccno1)C(=O)N1CCC(c2ccccc2)CC1`, the remaining at 3 h, 10 µM in [3] was more than 75%. Besides, the half-life at 10 µM in data set [4] came to 30 min. The inhibition in data set [2] stood at 93%. In addition, the AUC(0-t) (commonly exposure summed from dosing to a finite time, without extrapolation to infinity) at 6 h in data set [9] amounted to 1960 ng·h/mL. In data set [10], this molecule yielded a Time of 2 to 3 h. In addition, the inhibition result in the data set on Rattus norvegicus was “Active”.
Regarding `NC(=O)C[C@H](NC(=O)[C@H](CC1CCCCC1)NC(=O)c1ccno1)C(=O)N1CCC2(C=Cc3ccccc32)CC1`, the Activity in data set [1] lay within 53 to 81%.
On to `CC[C@H](C)[C@H](NC(=O)[C@H](CC1CCCCC1)NC(=O)c1ccon1)C(=O)N1CCC2(C=Cc3ccccc32)CC1`, for which the inhibition in data set [2] was found to be 27%. Also, in data set [1], the Activity was 21%.
Turning to `CC[C@H](C)[C@H](NC(=O)[C@H](CC1CCCCC1)NC(=O)c1ccno1)C(=O)N1CCC2(CC1)OC(=O)c1ccccc12`, in [1], the Activity lay in the range of 62 to 70%. The pEC50 in [6] was 5.74 to 6.15.
As to `CC(C)(NC(=O)[C@H](CC1CCCCC1)NC(=O)c1ccno1)C(=O)N1CCC2(C=Cc3ccccc32)CC1`, the inhibition in data set [2] fell in the range of 10 to 16%.
For the molecule `CC[C@H](C)[C@H](NC(=O)[C@H](CC1CCCCC1)NC(=O)c1cc(N)n[nH]1)C(=O)N1CCC2(C=Cc3ccccc32)CC1`, the Activity in [1] amounted to 26%.
With `CC[C@H](C)[C@H](NC(=O)[C@H](CC1CCCCC1)NC(=O)c1ccno1)C(=O)N1CCC(O)(c2ccc(C(F)(F)F)cc2C(F)(F)F)CC1`, in [2], the inhibition is 43 to 69%.
Regarding `CC[C@H](C)[C@H](NC(=O)[C@H](CC1CCCCC1)NC(=O)c1ccno1)C(=O)N1CCN(c2ccc(F)cc2)CC1`, in data set [1], the Activity lay within 30 to 50%.
As to `O=C(N[C@@H](CC1CCCCC1)C(=O)N[C@@H](Cc1cnc[nH]1)C(=O)N1CCC2(C=Cc3ccccc32)CC1)c1ccno1`, the Activity in [1] fell in the range of 53 to 81%.
As to `CC[C@H](C)[C@H](NC(=O)[C@H](CC1CCCCC1)NC(=O)c1cscn1)C(=O)N1CCC2(C=Cc3ccccc32)CC1`, the inhibition in data set [2] came out at 70%.
Regarding `NCC[C@H](NC(=O)[C@H](CC1CCCCC1)NC(=O)c1ccno1)C(=O)N1CCC2(C=Cc3ccccc32)CC1`, the Activity in data set [1] came out at 11%.
On to `CC[C@H](C)[C@H](NC(=O)[C@H](CC1CCCCC1)NC(=O)c1ccno1)C(=O)N1CCCC[C@H]1C(=O)NC(C)(C)C`, for which the inhibition in data set [2] turned out to be 64%.
On to `CC(C)(C)[C@H](NC(=O)[C@H](CC1CCCCC1)NC(=O)c1ccno1)C(=O)N1CCC2(C=Cc3ccccc32)CC1`, for which, in data set [2], the inhibition fell in the range of 10 to 16%.
Take `CC[C@H](C)[C@H](NC(=O)[C@H](CC1CCCCC1)NC(=O)c1ccno1)C(=O)N1CCC2(C=Cc3ccccc32)CC1`: the remaining at 3 h, 10 µM in data set [3] was more than 75%. In addition, the half-life at 10 µM in [4] was 60 min. Moreover, the inhibition in data set [2] was 92%. Besides, in data set [7], the pIC50 was 5.77 to 5.96 and the IC50 is 1580 nM. For the same molecule, the pIC50 in data set [11] was 5.44.
Consider `CC[C@H](C)[C@H](NC(=O)[C@H](CC1CCCCC1)NC(=O)c1ccno1)C(=O)N1CCN(Cc2ccc(F)cc2)CC1`, for which, in [1], the Activity was in the range of 30 to 50%.
Turning to `CC[C@H](C)[C@H](NC(=O)[C@H](CC1CCCCC1)NC(=O)c1nc[nH]n1)C(=O)N1CCC2(C=Cc3ccccc32)CC1`, the inhibition in data set [2] turned out to be 43%.
